From article PMC8199067, “Urolithin and Reduced Urolithin Derivatives as Potent Inhibitors of Tyrosinase and Melanogenesis: Importance of the 4-Substituted Resorcinol Moiety” (International Journal of Molecular Sciences, 2021)

How the values were obtained:
mushroom tyrosinase = mushroom tyrosinase (Agaricus bisporus, UniProt C7FF04); assay: Mushroom tyrosinase inhibitory assay (L-tyrosine substrate); format: biochemical; details: 50 μM, L-tyrosine as substrate, mean ± SEM, NI means no inhibition
Procedure: The experiment was repeated three times. Mushroom tyrosinase inhibitions % were calculated using:% Inhibition = [1 − (A/B)] × 100(1) where A is the absorbance of the test compound and B is the absorbance of the blank.
Log-linear curves were plotted, and their equations were determined.

B16F10 melanoma cells [1] = test system: B16F10 melanoma cells; design: method as in PMID 28726389; details: B16F10 melanoma cells ref 70; cited from earlier work
B16F10 melanoma cells [2] = test system: B16F10 melanoma cells; design: method as in Su and co-workers; details: at the same concentration (20 µM) ref Su and co-workers; cited from earlier work

mushroom tyrosinase, sequence (C7FF04 1-392 limits assumed): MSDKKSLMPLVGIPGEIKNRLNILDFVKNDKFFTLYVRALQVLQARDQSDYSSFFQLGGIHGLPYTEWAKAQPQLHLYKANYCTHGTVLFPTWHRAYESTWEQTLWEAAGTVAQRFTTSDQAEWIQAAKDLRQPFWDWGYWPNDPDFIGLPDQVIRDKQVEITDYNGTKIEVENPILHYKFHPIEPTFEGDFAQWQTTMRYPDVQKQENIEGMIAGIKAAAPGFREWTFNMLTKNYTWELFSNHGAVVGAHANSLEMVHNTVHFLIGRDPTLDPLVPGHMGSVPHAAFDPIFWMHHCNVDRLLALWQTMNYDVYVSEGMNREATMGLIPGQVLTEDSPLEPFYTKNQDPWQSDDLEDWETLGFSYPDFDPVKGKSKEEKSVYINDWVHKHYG

Row | SMILES | inhibition at 50 µM (mushroom tyrosinase) | Tyrosinase Inhibition (%) (mushroom tyrosinase; listed as urolithin B) | Tyrosinase Inhibition (%) (mushroom tyrosinase; listed as urolitin B) | Antimelanogenic effect (B16F10 melanoma cells [1]) | Cytotoxicity compared with 1c and 1h (B16F10 melanoma cells [2]) | Tyrosinase Inhibition (%) (mushroom tyrosinase; listed as urolithin A)
1 | O=c1oc2cc(O)ccc2c2ccccc12 [Compound 1a, 3-Hydroxy-6H-benzo[c]chromen-6-one] | < 0% | did not inhibit tyrosinase | did not show inhibitory activity | antimelanogenic effects through tyrosinase inhibition | higher cytotoxicity | –
2 | O=c1oc2cc(O)ccc2c2ccc(O)cc12 [Compound 1e, 3,8-Dihydroxy-6H-benzo[c]chromen-6-one] | < 0% | – | – | antimelanogenic effects through tyrosinase inhibition | higher cytotoxicity | did not show inhibitory activity
